Target: T1, AMPH-1 (Amphiphysin 1) (Caenorhabditis elegans, UniProt Q21004)
T1 sequence (Q21004 1-461): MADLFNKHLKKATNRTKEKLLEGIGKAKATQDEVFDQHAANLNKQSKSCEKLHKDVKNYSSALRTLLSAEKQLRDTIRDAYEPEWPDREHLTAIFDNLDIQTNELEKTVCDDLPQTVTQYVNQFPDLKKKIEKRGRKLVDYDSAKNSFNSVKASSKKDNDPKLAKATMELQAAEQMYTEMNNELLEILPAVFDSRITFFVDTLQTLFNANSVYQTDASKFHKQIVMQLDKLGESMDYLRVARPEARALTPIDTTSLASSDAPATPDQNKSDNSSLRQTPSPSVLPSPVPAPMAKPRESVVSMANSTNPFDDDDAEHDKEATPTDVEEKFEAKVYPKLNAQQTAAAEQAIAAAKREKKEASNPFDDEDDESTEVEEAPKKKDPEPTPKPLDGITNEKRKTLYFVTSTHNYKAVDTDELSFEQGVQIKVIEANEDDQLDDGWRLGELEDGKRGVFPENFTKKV
Assay: membrane fission of PS liposomes by burst analysis spectroscopy
Assay type: biochemical
Conditions: 0.5 mM GDP, 1 μM AMPH-1, 30 min; stimulates fission

Nc1nc2c(ncn2[C@@H]2O[C@H](COP(=O)(O)OP(=O)(O)O)[C@@H](O)[C@H]2O)c(=O)[nH]1 [GDP]
membrane fission of PS liposomes by burst analysis spectroscopy: GDP stimulates fission to almost the same extent as seen in the presence of GTP
